test system: DNA polymerase; details: surface-anchored primer/template DNA, stepwise reactions, FIG. 2(b); Cy5-dCTP detected by spFRET with Cy3-dUTP
Protocol: FIG. 2a(1) is an image of the slide surface: Annealed primer/template DNA molecules detected by Cy3 fluorescence from the labeled primer. Scale bar, 10 µm. […] FIG. 2a(3) is an image of the slide surface: Labeled nucleotide fluorescence after successful incorporation by DNA polymerase. Note; prior to the incorporation reaction, the primer fluorescence shown in FIG. 2a(1) was photo-bleached. After incubation of template DNA molecules with DNA polymerase and a labeled dNTP, the sequencing chamber was flushed to prevent fluorescent detection of unincorporated labeled dNTPs. […] FIG. 2a(5) is an overlay of the primer/template positions with the labeled nucleotide positions.
Observations of single-molecule fluorescence can be made using a conventional microscope equipped with total internal reflection (TIR) illumination. […] First, the surface of a quartz slide is chemically treated to specifically anchor template nucleic acid molecules while preventing non-specific binding of labeled dNTPs present in the sequencing reaction. A plastic flow cell is then attached to the surface of the slide to facilitate the exchange of buffers and reagents. Next, biotinylated oligonucleotides, serving as sequencing templates, are annealed to a fluorescently labeled primer. Template nucleic acid molecules are bound to the slide surface via streptavidin and biotin at a surface density low enough to resolve single nucleic acid molecules. The primed templates are detected via their fluorescent tags and their locations are recorded for future reference. After noting the location of each template nucleic acid molecule, their fluorescent tags are photo-bleached. Labeled dNTPs and polymerase (or polymerizing agent) are then washed in and out of the flow cell, one dNTP at a time, while the known locations of the template nucleic acid molecules are monitored for fluorescence, an indication that the primer annealed to the template nucleic acid molecule had been extended by one labeled nucleotide.

Molecule	incorporation of labeled dNTP by DNA polymerase (selectivity and fidelity)
CCN1/C(=C/C=C/C2=[N+](CCCCCC(=O)NCC#Cc3cn(C4CC(O)C(COP(=O)([O-])OP(=O)([O-])OP(=O)([O-])[O-])O4)c(=O)nc3N)c3cc(S(=O)(=O)O)ccc3C2(C)C)C(C)(C)c2ccc(S(=O)(=O)[O-])cc21.[Li+].[Li+].[Li+].[Li+] (stereo not shown) [Cy3-dCTP]	correctly refusing to incorporate
Cy3-dUTP	correctly incorporated
Cy5-dCTP	correctly incorporated
Cy5-dUTP	correctly refusing to incorporate
